Laboratory results from patent publication US20140369987A1, “DERMASEPTIN B2 USED AS AN INHIBITOR OF THE GROWTH OF A TUMOR” (Centre National de la Recherche Scientifique (C.N. R.S), priority 2009, published 2014).
Ends that are not written are not given here.

Key:
[1] = system: tumours induced by injection of PC-3; assay: Growth of PC-3 xenograft tumours in nude mice; type: in vivo
Method: Batches of 10 nude mice (nude/nude, Laboratoire IFFA CREDO) were injected with 2×10^6 PC-3 cells. One week after injection of the cells, the animals having a palpable tumour were randomly distributed per cage to be treated by injection into the tumour with 100 μl per day of PBS solution (control batch) or with a solution of dermaseptin B2 diluted in PBS. Dermaseptin B2 was injected at a concentration of 5 mg/kg the first week of treatment, then this dose was reduced to 0.5 mg/kg for 12 days. […] As control, a batch of mice was also treated with Taxol® (paclitaxel, Bristol-Myers Squibb) twice per week via intra-peritoneal injection at 10 mg/kg. The size of the tumours was measured using a calliper twice a week up until sacrifice of the animals 29 days after the beginning of treatment. After sacrifice, the tumours were removed and weighed.

[2] = system: receptor of adenosin A1; conditions: cited from earlier work
[3] = system: PC-3 cells; assay: Annexin V FITC / propidium iodide double labelling, flow cytometry; type: cell-based, human; conditions: 2.5 μM
Excerpt: During the proliferation assays of PC-3 or ABAE cells, in the presence of dermaseptin B2, the rapidly observed inhibitor effect and the non-refringence of the treated cells leads to assuming that dermaseptin B2 could have a cytotoxic role or cell death inducing role rather than blocking the growth of sensitive cells. To determine whether dermaseptin B2 could induce apoptosis of sensitive cells, the inventors conducted double labelling experiments with Annexin V and propidium iodide on PC-3 cells in culture on plastic and treated or not treated with dermaseptin B2. These experiments were followed by flow cytometry analysis of the labelled cells.
For this purpose, the cells were seeded in 6-well plates in the absence or presence of 2.5 μM of dermaseptin B2 for 24 or 72 hours. The cells were then detached, washed with cold PBS and re-suspended in 100 μl of fixing buffer (MACs, Miltenyi Biotec) containing Annexin V FITC for 10 min in the dark. After washings in PBS, the cells were again labelled by incubation in a fixing buffer containing a final concentration of 1 μg/ml of propidium iodide (PI) for 5 min in the dark. After further washings the cells were analyzed by passing through a flow cytometer (FACScan, Becton Dickinson Labware) (FIGS. 10 and 11).

[4] = system: PC-3 cells; assay: Colony formation of PC-3 cells in soft agar; type: cell-based, human; conditions: 5 μM; 12 days
Method: To confirm the inhibition of the cell growth observed on plastic with the PC-3 cells, the inventors tested the effect of dermaseptin B2 on the ability of the PC-3 cells to multiply independently of anchoring by forming colonies in agar. For this assay, the cells were seeded at a density of 2.5×10^3 cells par cm^2 diluted in complete culture medium (RPMI supplemented with 5% foetal calf serum) containing 0.35% agar and varying concentrations of dermaseptin B2, in 12-well dishes containing 1 ml of solidified 0.6% agar. The same variable concentrations of dermaseptin B2 were also added to the complete culture medium deposited on top of the cultures on the day of seeding, and twice per week. After incubation for 12 days at 37° C. in an incubator saturated with water vapour and containing 7% CO2, the colonies having a diameter larger than […] were counted. Each measurement was performed in triplicate and each experiment was repeated three times.

[5] = system: Gram+ and Gram− bacteria, yeasts, protozoa and filamentous fungi; conditions: micromolar doses; cited from earlier work
[6] = system: LB-EBV cells; assay: Growth of non-adherent B-lymphoma line LB-EBV, crystal violet cell count; type: cell-based, human; conditions: 10 μM; count on 7th day
Method: (§1) Dermaseptin B2 was also tested on the growth of two non-adherent lines derived from human B-lymphoma: the Raji and LB-EBV lines. The cells were seeded at 10^4 cells per well in 0.5 ml of RPMI medium supplemented with 2.5% of decomplemented foetal calf serum. 24 hours after seeding, the cells were treated with different concentrations of dermaseptin B2. […] On the 7th day, the cell count was estimated by staining with crystal violet as described previously.

[7] = system: G1947 human prostatic hyperplasia cells
Method: (§2) The anti-proliferative activity of dermaseptin B2 was assessed in vitro on different types of cells: PC-3 adenocarcinoma cells and G1947 human prostatic hyperplasia cells, and on mouse embryo cells (CES). The different types of cells were seeded in 24-well plates at […] in 0.5 ml of culture medium (RPMI supplemented with 5% foetal calf serum for the PC-3 and G1947 cells, or DMEM supplemented with 10% foetal calf serum for the CES cells). After 24 hours, the cells were treated with different doses of dermaseptin B2. The treatment was then renewed at days 3 and 5 after seeding of the cells. On the 6th day, an estimated cell count was performed by staining with crystal violet. The cells were rinsed with PBS, fixed on plastic by dehydration with absolute ethanol, and then stained with a 0.2% solution of crystal violet in 2% ethanol for 15 min. After washing, the cells were solubilised with 1% SDS solution. The optical density (OD) of the crystal violet was measured using a spectrophotometer at 595 nm. A standard range was produced for conversion of OD-number of cells.

[8] = system: mouse embryo cells (CES)
Method: as §2

[9] = system: ABAE cells; assay: Formation of pseudo capillaries by ABAE cells on collagen 1 gel (Montessano test); type: cell-based, bovine; conditions: 5 μM
Method: The effect of dermaseptin B2 on the formation of pseudo capillaries was assessed through use of the Montessano test. This test allows evaluation of the differentiation of ABAE cells to pseudo capillaries when seeded in a monolayer on collagen 1 gel. For this assay, ABAE cells were seeded in 24-well plates on a monolayer of collagen 1 to the proportion of 10^5 cells/well in DMEM medium supplemented with 10% foetal calf serum. 24 hours after seeding, 20 ng/ml of FGF-2 were added to the cells in the absence or presence of varying concentrations of dermaseptin B2. This treatment was renewed for two days and the formation of a network of pseudo capillaries was assessed 24 hours later by observation under phase contrast microscope measuring the number of capillaries formed per field of observation (FIGS. 5C and D).

[10] = system: Raji cells; assay: Growth of non-adherent B-lymphoma line Raji, crystal violet cell count; type: cell-based, human; conditions: 10 μM; count on 7th day
Method: as §1

[11] = system: adult bovine aortic endothelial cells (ABAE); assay: Proliferation of ABAE endothelial cells on plastic; type: cell-based; conditions: with 5 ng/ml FGF-2; count on 7th day
Method: The angiostatic activity of dermaseptin B2 was assessed for its capacity to inhibit firstly the proliferation of adult bovine aortic endothelial cells (ABAE) on plastic and secondly the formation of pseudo capillaries by these same cells in collagen gel. For the proliferation test the ABAE cells were seeded in 24-well plates at a density of 10^4 cells/well in DMEM medium supplemented with 10% foetal calf serum and 5 ng/ml of FGF-2. […] On the 7th day the cell count was estimated by staining with crystal violet.

Compound | inhibition of tumour growth (tumour volume) compared with non-treated tumours ([1]; intra-peritoneal 10 mg/kg twice per week, 29 days of treatment) [%] | effect on binding of agonists with the receptor of adenosin A1 [2] | increase of percentage of cells labelled solely with PI (necrosis) [3] [times] | increase in cells labelled twofold with Annexin V and PI (apoptosis) ([3]; 24 h) | increase of percentage of cells only labelled with Annexin V (early apoptosis) ([3]; 24 h) [times] | percentage of non-labelled cells ([3]; 24 h) | percentage of cells labelled twofold with Annexin V and PI, 72 h versus 24 h ([3]; 72 h) | growth of PC-3 cells on soft agar (colonies) [4] | killing of Gram+ and Gram− bacteria, yeasts, protozoa and filamentous fungi [5] | inhibition of growth of LB-EBV cells [6] | cell detachment during treatment, G1947 cells [7] | cell detachment during treatment, embryo (CES) cells [8] | formation of pseudo capillaries induced by FGF-2 ([9]; 20 ng/ml FGF-2) | cytotoxic effect on the monolayer of ABAE cells ([9]; pseudo capillary assay) | mice with full disappearance of the tumour ([1]; batches of 10 mice, after sacrifice at day 29) [mice] | inhibition of growth of Raji cells [10] | inhibition of growth of ABAE cells [11]
CC(=O)O[C@H]1C(=O)[C@@]2(C)[C@H]([C@H](OC(=O)c3ccccc3)[C@]3(O)C[C@H](OC(=O)[C@H](O)[C@@H](NC(=O)c4ccccc4)c4ccccc4)C(C)=C1C3(C)C)[C@]1(OC(C)=O)CO[C@@H]1C[C@@H]2O [Taxol®, paclitaxel, reference compound] | 36 |  |  |  |  |  |  |  |  |  |  |  |  |  |  |  | 
GLWSKIKEVGKEAAKAAAKAAGKAALGAVSEAV [dermaseptin B2] |  | increase the binding of agonists | 3 | about 30% | 5 | dropped suddenly in the same proportions | does not change | fully inhibits growth | rapidly kills | about 95 | no cell detachment was observed | no cell detachment was observed | strongly inhibits | did not have any cytotoxic effect | 3 | about 95 | dose-dependent and full inhibition
